Values of other authors as cited in US20060073479A1 (priority 2001, published 2006).

Experiments:
[1] = system: patients treated with paclitaxel; details: in vivo
CYP2C8 = target: T1, CYP2C8 (Homo sapiens, UniProt P10632); details: in vitro studies
T1 sequence (P10632 1-490): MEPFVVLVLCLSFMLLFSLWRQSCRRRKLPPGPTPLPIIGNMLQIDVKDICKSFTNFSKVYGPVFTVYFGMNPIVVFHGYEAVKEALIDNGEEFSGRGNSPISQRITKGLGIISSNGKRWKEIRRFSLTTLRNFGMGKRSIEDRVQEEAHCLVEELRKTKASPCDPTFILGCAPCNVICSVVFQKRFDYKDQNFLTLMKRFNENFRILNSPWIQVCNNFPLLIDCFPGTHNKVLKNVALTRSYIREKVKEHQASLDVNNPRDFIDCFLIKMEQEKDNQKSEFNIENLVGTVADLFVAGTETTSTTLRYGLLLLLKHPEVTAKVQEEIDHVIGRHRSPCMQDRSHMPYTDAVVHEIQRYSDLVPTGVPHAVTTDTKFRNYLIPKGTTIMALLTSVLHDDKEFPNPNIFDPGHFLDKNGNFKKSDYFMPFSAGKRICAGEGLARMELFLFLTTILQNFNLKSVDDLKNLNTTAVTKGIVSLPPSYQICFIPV

CYP3A4 = CYP3A4 (Homo sapiens, UniProt P08684); details: in vitro studies
[2] = urine and feces

Chain of CYP3A4 (P08684 whole entry): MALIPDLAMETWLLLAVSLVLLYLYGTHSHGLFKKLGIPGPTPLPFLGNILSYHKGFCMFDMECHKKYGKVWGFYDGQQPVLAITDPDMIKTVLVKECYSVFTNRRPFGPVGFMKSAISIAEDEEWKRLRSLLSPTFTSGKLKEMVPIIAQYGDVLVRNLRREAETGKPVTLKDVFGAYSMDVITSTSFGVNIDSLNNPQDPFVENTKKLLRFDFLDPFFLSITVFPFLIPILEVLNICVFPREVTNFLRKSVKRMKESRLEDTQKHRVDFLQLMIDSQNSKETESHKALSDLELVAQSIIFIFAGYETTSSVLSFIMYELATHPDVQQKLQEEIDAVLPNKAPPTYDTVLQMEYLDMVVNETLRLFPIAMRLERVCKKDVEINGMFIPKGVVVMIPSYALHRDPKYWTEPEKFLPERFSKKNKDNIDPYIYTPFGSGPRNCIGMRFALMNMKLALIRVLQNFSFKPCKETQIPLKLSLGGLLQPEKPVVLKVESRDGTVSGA

| metabolism by CYP2C8 (CYP2C8) | metabolism by CYP3A4 (CYP3A4) | Structure (SMILES) | fraction of treated patients refractory to beneficial effect [1] | metabolism / excretion in words [2] |
| --- | --- | --- | --- | --- |
| metabolized by CYP2C8 | to a lesser extent by CYP3A4 | CC(=O)O[C@H]1C(=O)[C@@]2(C)[C@H]([C@H](OC(=O)c3ccccc3)[C@]3(O)C[C@H](OC(=O)[C@H](O)[C@@H](NC(=O)c4ccccc4)c4ccccc4)C(C)=C1C3(C)C)[C@]1(OC(C)=O)CO[C@@H]1C[C@@H]2O [paclitaxel] | about one-third |  |
|  |  | N.N.O=C([O-])C1(C(=O)[O-])CCC1.[Pt+2] [carboplatin] |  | relatively stable and excreted largely in unchanged form in the urine |
